Assay: Accelerated Oxidization Tests (anti-oxidizing ability, peroxides)
Settings: 200 ppm (extract: Nejayote 1000 ppm + 200 ppm Pure Ferulic Acid)
Description: The tests of anti-oxidizing ability of the compositions in examples 1, 2 and 3. Said anti-oxidizing ability is the ability which conveys, to a considerable extent, the phytoceutical properties of our composition.
The determination was performed by AOAC Official Method 965.33/(AOCS Method Cd 8-53) 2000 AOAC International.

SMILES	Accelerated Oxidization Tests (peroxides) (Time 0 Hs) [Meq/Kg]	Accelerated Oxidization Tests (peroxides) (Time 4 Hs) [Meq/Kg]	Accelerated Oxidization Tests (peroxides) (Time 8 Hs) [Meq/Kg]	Accelerated Oxidization Tests (peroxides) (Time 16 Hs) [Meq/Kg]	Accelerated Oxidization Tests (peroxides) (Time 24 Hs) [Meq/Kg]	Accelerated Oxidization Tests (peroxides) (Time 32 Hs) [Meq/Kg]	Accelerated Oxidization Tests (peroxides) (Time 40 Hs) [Meq/Kg]	Accelerated Oxidization Tests (peroxides) (Time 48 Hs) [Meq/Kg]	Accelerated Oxidization Tests (peroxides) (Time 56 Hs) [Meq/Kg]	Accelerated Oxidization Tests (peroxides) (Time 64 Hs) [Meq/Kg]	Accelerated Oxidization Tests (peroxides) (Time 72 Hs) [Meq/Kg]	Accelerated Oxidization Tests (peroxides) (Time 80 Hs) [Meq/Kg]	Accelerated Oxidization Tests (peroxides) (Time 88 Hs) [Meq/Kg]	Accelerated Oxidization Tests (peroxides) (Time 96 Hs) [Meq/Kg]	Accelerated Oxidization Tests (peroxides) (Time 104 Hs) [Meq/Kg]	Accelerated Oxidization Tests (peroxides) (Time 112 Hs) [Meq/Kg]	Accelerated Oxidization Tests (peroxides) (Time 120 Hs) [Meq/Kg]	Accelerated Oxidization Tests (peroxides) (Time 128 Hs) [Meq/Kg]
COc1cc(/C=C/C(=O)O)ccc1O [Pure Ferulic Acid, ferulic acid]	0.00	0.00	0.00	0.00	0.00	3.17	4.19	7.25	13.61	20.18	21.12	24.19	31.16	36.19	51.14	31.05	21.05	0.00
COc1ccc(O)c(C(C)(C)C)c1 [pure BHA, Butylated Hydroxy Anisole]	0.00	0.00	0.00	0.00	0.00	0.00	0.00	0.60	0.68	1.09	0.91	1.89	8.03	41.94	45.11	36.12	24.10	6.16
